Results: US10426774B2, “Methods of treating cancer having an active Wnt/β-catenin pathway” (DANA-FARBER CANCER INSTITUTE, INC., priority 2012, dated 2019)

What was measured:
zebrafish embryos = test: Zebrafish embryo gut formation (IFABP expression / gut reporter); type: in vivo; settings: morpholino microinjection 50 μM; gut reporter fluorescence 4 dpf, IFABP in situ hybridization 3 dpf
Method: FIG. 5: YES1 is essential for tumorgenicity of β-catenin-active cells. (A) V5 immune complexes were isolated from HuTu80 or SW480 cells stably expressing WT or Y357F V5-epitope-tagged YAP1 or control V5-LacZ Immune complexes were analyzed by immunoblotting with a phosphotyrosine antibody. (B) HuTu80 or SW480 cells stably expressing V5-epitope-tagged WT YAP1 were treated for 6 hr with 0.5 or 2 μM of dasatinib. V5 immune complexes were analyzed by immunoblotting with a phosphotyrosine antibody. (C) Transgenic IFABP:RFP zebrafish were injected with 50 μM of YAP1- or YES1-specific morpholinos. Red fluorescence was assessed 4 dpf, or IFABP expression was assessed 3 dpf by using whole-mount in situ hybridization with an IFABP-specific probe. (D) Embryos were exposed to 2 μM of dasatinib at 2 dpf, and IFABP expression was assessed after 24 hr by using whole-mount in situ hybridization.
Zebrafish were maintained according to institutional animal care and use committee (IACUC-BIDMC) protocols. Validated morpholinos (MO) (Gene-Tools, PhiloMath, Oreg.) designed against the ATG site of YES1 (5′-CC […]-3′, SEQ ID NO: 1) (Jopling and Hertog, 2007) or YAP1 (5′-[…]-3′, SEQ ID NO: 2) (Skouloudaki et al., 2009) were injected into WT or gut reporter (Tg(fabp2:RFP)as200) zebrafish at the one-cell stage. […]

Colo205 = test: Small-molecule inhibitor proliferation assay (crystal violet), Colo205; type: cell-based; settings: Homo sapiens, COLO 205, 168 h, β-catenin pathway active, proliferation 7 d post treatment, read-out: IC50 Dasatinib
Method: (§1) (A) The indicated cancer cell lines were treated with various concentrations of dasatinib and proliferation was measured 7 days post treatment. (B) HCT116 or (C) HuTu80 cells stably expressing a dastinib resistant YES1 (T348I) or SRC (T341I) were treated as in (A). (D) Representative picture of HCT116 cells treated as in (B).
(§2) 6000 cell/well were plated in 24-well plates and the indicated doses of dasatinib (Selleck, Houston) or vehicle was added 24 hr later. Proliferation was measured after 7 d by crystal violet staining.

HCT116 = test: Small-molecule inhibitor proliferation assay (crystal violet), HCT116; type: cell-based; settings: Homo sapiens, HCT-116, 168 h, β-catenin pathway active, proliferation 7 d post treatment, read-out: IC50 Dasatinib
Method: as §1, §2

HT55 = test: Small-molecule inhibitor proliferation assay (crystal violet), HT55; type: cell-based; settings: Homo sapiens, 168 h, β-catenin pathway active, proliferation 7 d post treatment, read-out: IC50 Dasatinib
Method: as §1, §2

HuTu80 = test: Small-molecule inhibitor proliferation assay (crystal violet), HuTu80; type: cell-based; settings: Homo sapiens, 168 h, β-catenin pathway active, proliferation 7 d post treatment, read-out: IC50 Dasatinib
Method: as §1, §2

DLD1 = test: Small-molecule inhibitor proliferation assay (crystal violet), DLD1; type: cell-based; settings: Homo sapiens, DLD-1, 168 h, β-catenin pathway active, proliferation 7 d post treatment, read-out: IC50 Dasatinib
Method: as §1, §2

SW480 = test: Small-molecule inhibitor proliferation assay (crystal violet), SW480; type: cell-based; settings: Homo sapiens, 168 h, β-catenin pathway active, proliferation 7 d post treatment, read-out: IC50 Dasatinib
Method: as §1, §2

KM12 = test: Small-molecule inhibitor proliferation assay (crystal violet), KM12; type: cell-based; settings: Homo sapiens, 168 h, β-catenin pathway Non-active, proliferation 7 d post treatment, read-out: IC50 Dasatinib
Method: as §1, §2

RKO = test: Small-molecule inhibitor proliferation assay (crystal violet), RKO; type: cell-based; settings: Homo sapiens, 168 h, β-catenin pathway Non-active, proliferation 7 d post treatment, read-out: IC50 Dasatinib
Method: as §1, §2

APC null organoids = test: Three-dimensional primary colon organoid culture, APC null; type: cell-based, mouse; settings: 50 nM
Method: […] (B) Quantification of results in (A). Error bars represent SD from four replicates. Blank denotes wells where no organoids were added. (C) WT or AXIN1 mutant (Masterblind) zebrafish were treated with 2 μM of dasatinib from 6-8 dpf. Arrow indicates developing gut. (D) H&E staining of zebrafish in (C) width of epithelium is noted by bars. (E) The number of epithelial cells/section was measured in WT or AXIN1 mutant zebrafish treated with 2 μM of dasatinib or DMSO. Error bars represent the SD from 20 different sections from five treated fish. p value was calculated by using Student's t test.
(§3) Colons from Apc flox/flox; villin-CreER mice were dissected lengthwise and washed in cold PBS. 0.5-1 cm segment per dish was minced extensively on ice and embedded in a 3D collagen gel by using a double-dish culture system (Ootani et al., 2009). Tamoxifen (Sigma, 2 μM in ethanol) or vehicle (ethanol) was applied on the day of initial plating for 7 days to generate APC null or WT organoids.

WT organoids = test: Three-dimensional primary colon organoid culture, WT; type: cell-based, mouse; settings: WT organoids treated with dasatinib
Method: (A) Representative images of colon organoids derived from WT or APC null mice treated for 6 days with 100 nM of dasatinib. (B) Quantification of results in (A). Error bars represent SD from four replicates. Blank denotes wells where no organoids were added. (C) WT or AXIN1 mutant (Masterblind) zebrafish were treated with 2 μM of dasatinib from 6-8 dpf. Arrow indicates developing gut. (D) H&E staining of zebrafish in (C) width of epithelium is noted by bars. (E) The number of epithelial cells/section was measured in WT or AXIN1 mutant zebrafish treated with 2 μM of dasatinib or DMSO. Error bars represent the SD from 20 different sections from five treated fish. p value was calculated by using Student's t test.
as §3

Row | Molecule | gut formation (zebrafish embryos) | IC50 (Colo205) [µM] | IC50 (HCT116) [µM] | IC50 (HT55) [µM] | IC50 (HuTu80) [µM] | IC50 (DLD1) [µM] | IC50 (SW480) [µM] | IC50 (KM12) [µM] | IC50 (RKO) [µM] | decrease in growth of APC null organoids (APC null organoids) [%] | growth inhibition of WT organoids (WT organoids) [%]
1 | 5′-AGCAACATTAACAACTCACTTTAGG-3′ (morpholino backbone, further chemistry not given here) [YAP1 morpholino] | dramatically inhibited |  |  |  |  |  |  |  |  |  | 
2 | 5′-CC TCTTTACTCTTGACACAGCCCAT-3′ (CCTCTTTACTCTTGACACAGCCCAT; morpholino backbone, further chemistry not given here) [YES1 morpholino] | dramatically inhibited |  |  |  |  |  |  |  |  |  | 
3 | Cc1nc(Nc2ncc(C(=O)Nc3c(C)cccc3Cl)s2)cc(N2CCN(CCO)CC2)n1 [dasatinib] |  | 0.08 | 0.068 | 0.07 | 0.07 | 0.125 | 0.05 | > 0.8 | > 0.8 | 70 | 5
